Results from patent US9314966B2, “Bandseal for PEG-filled hard capsule” (QUALICAPS CO., LTD., priority 2007, dated 2016).

Legend:
Type in all cases: physicochemical
[1] = Solubility in PEG400 (naked-eye inspection); conditions: for solubility: polyethylene glycol 400 (PEG400), organic solvent or mixture, thermodynamic from solid, read-out: Solubility in PEG400, Evaluation results
Description: 0.5 g each of the high-molecular compounds and plasticizers were placed into separate test tubes. 5 mL of PEG400 was added to each test tube. After stirring with a mixer, the resulting mixtures were inspected with the naked eye and the high-molecular compounds and plasticizers were evaluated for their solubility in PEG400.

[2] = Solubility in 10 wt. % aqueous PVA copolymer solution; conditions: aqueous with cosolvent or surfactant or cyclodextrin, thermodynamic from solid; 0.5 g in 10 wt. % aqueous PVA copolymer (POVACOAT Type F) solution; read-out: Solubility in the Aqueous PVA Copolymer Solution, Evaluation result
Description: (§1) Based on the results of Experimental Example 1, the candidates as raw materials for the band seal (see Table 2) were tested to research substances soluble in an aqueous solution of a PVA copolymer (POVACOAT Type F, product of Daido Kasei Corp., viscosity: 5.5 mPa·s, as measured at 25° C. using a 5% aqueous solution of the copolymer), and an aqueous solution of PVA (JP-05, product of Japan Vam & Poval Co., Ltd., average degree of polymerization: 500).
(§2) More specifically, 0.5 g each of the film-forming high-molecular compounds and plasticizers were placed into separate test tubes. A 10 wt. % aqueous solution of the PVA copolymer or a 10 wt. % aqueous solution of the PVA was added to each test tube. […] If some solids or liquid separation was observed, the mixture was evaluated as “not dissolved (insoluble)”.

[3] = Solubility in 10 wt. % aqueous PVA solution; conditions: aqueous with cosolvent or surfactant or cyclodextrin, thermodynamic from solid; 0.5 g in 10 wt. % aqueous PVA (JP-05) solution; read-out: Solubility in the Aqueous PVA Solution, Evaluation result
Description: as §1, §2

[4] = 0.5 g in 5 mL of PEG400, stirred, naked eye

solubility [1, 4] [mg/mL]	Molecule	other results
> 100	CC(=O)OCC(COC(C)=O)OC(C)=O [Triacetin]	
> 100	OCC(O)CO [Glycerol]	
	Polysorbate 80	Solubility in PEG400, Evaluation results [1, 4]: x (x: dissolved)
> 100	CC(O)CO (centres unmarked) [Propylene glycol]	
< 100	OC[C@@H](O)[C@@H](O)[C@H](O)[C@@H](O)CO [Sorbitol]	Solubility in PEG (in words) ([1]; 0.5 g in 5 mL of PEG400): insoluble; solubility [2]: > 100 mg/mL; solubility [3]: > 100 mg/mL
